Test results taken from patent US12066428B2, “Cell-substrate impedance monitoring of cancer cells” (Agilent Technologies, Inc., priority 2016, dated 2024).

How the values were obtained:
Assay type in all cases: cell-based, human
[1] = tested on: H460 cells; assay: Time-dependent cell index of drug-treated cells (cell-substrate impedance)
Experimental: The device was positioned on a device station that was located in an incubator maintaining conditions of 37° C. and 5% CO2. The cells were cultured and treated at their exponential growth phase with different concentrations of paclitaxel. The dynamic response of the cells to different doses of paclitaxel was monitored by monitoring cell-substrate impedance in real time every 15 minutes for 50 hours after treatment using a cell-substrate impedance monitoring system. The cell-substrate impedance monitoring system calculated the cell index at each time point monitored and plotted the cell index as a function of time.
The device was positioned on a device station that was located in an incubator maintaining conditions of 37 degrees C. and 5% CO2.

[2] = tested on: A549 cells; assay: RT-CES dynamic monitoring of drug interaction with target cells; details: A549, highest concentration; cells later recover and re-proliferate
Experimental: Drug Treatment and Cytotoxicity Assessment.
In order to observe the kinetics of drug interaction with target cells, A549 non-small lung cancer cells were seeded in ACEA 96× E-plate™ and continuously monitored until the cells reached the log growth phase at which point different concentrations of paclitaxel were added to the cells at the indicated final concentration. […] While it remains to be determined if this phenomenon is due to metabolism and inactivation of paclitaxel or due to the emergence of paclitaxel-resistant subpopulation, this experiment clearly exemplifies the tremendous advantage of real-time measurement which is offered by the RT-CES system and allows the user to the opportunity to observe and assess the entire history of drug interaction with the target cells which provides further information in addition to cell viability or cytotoxicity. The phenomenon observed in FIG. 20A would've been easily missed by traditional single-point assays such as MTT.
Yet another major advantage of using the RT-CES system to continually monitor the interaction of drugs with target cells is that the user can obtain insight into the mechanism of action of the drug of interest. […]

[3] = tested on: NK-92-mediated cytolysis of A549 cells; assay: Inhibition of NK-92-mediated cytolysis by signaling pathway inhibitors (RT-CES); details: NK-92 pre-incubated with inhibitor, E/T 16:1
Experimental: Cytolytic analysis. Target cells were seeded into the wells of either 16-well or 96-well E-plate in 100 μL of media. Cell growth was dynamically monitored using the RT-CES system for a period of 24-34 hours, depending on the experiment until they reached log growth phase and formed a monolayer. Effector cells at different concentrations were then directly added into individual wells containing the target cells. For background control, effector cells were added to a well without target cells. After addition of the effector cells, the E-plate was returned to the e-plate station and the measurements were automatically collected by the analyzer every 15 minutes for up to 20 hours.
Data analysis. The integrated software is able to display entire history of the experiment from seeding the cells to termination of cytolysis. […] The cell index here is determined by calculating, for each measurement frequency f, the relative-change (Relative change (f)=(Rcell (f)−Rbackground(f))/Rbackground(f)) in resistance (a component of impedance) of a well when target cells are present in the well (Rcell (f)) with respect to background resistance (Rbackground) of the well when no cell is present and only cell culture medium is in the well, and then finding the maximum relative-change in resistance for all frequencies measured (Cell Index=max {Relative change (f)} for all measurement frequencies). […]

[4] = tested on: A549 cells; assay: A549 target cells incubated with inhibitors alone (RT-CES control); details: A549 target cells without NK-92
From the text: Inhibition of NK-mediated cytolysis of target cells by agents which block the signaling pathways leading to cytotoxicity. The interaction of NK receptors at the cell membrane by target cells leads to the activation of signal transduction machinery which results in cytolysis of target cells (Vivier et al., 2004). One of the key signaling cascades which regulate the fusion of perforin and granzyme containing secretory granules at the NK/target cell synaptic junction is the phosphatidyl-inositol-3-kinase (PI3K), Rac and mitogen activated protein kinase 1 (Erk) pathway (Djeu et al., 2002; Vivier et al., 2004). In order to determine the specificity of the signaling pathways in regulating NK-mediated cytotoxicity, we therefore sought to utilize specific inhibitors of the PI3K and Erk pathways. NK-92 cells were incubated with both the PI3K inhibitor Wortmannin and the Erk pathway inhibitor PD98059 or DMSO as a control and then added to A549 target cells. […] We calculated percent inhibition of cytolysis for both inhibitors at different time points after NK addition. […] In summary, the experiments shown here clearly establish that the RT-CES system can be used to monitor NK-mediated cytotoxic activity against a variety of different cell lines.

Row | Structure (SMILES) | time over which cell index exhibited a near-constant value ([1]; H460, 33 nanomolar) | cell index response after compound addition ([1]; H460, concentrations between 67 nanomolar and 500 nanomolar) | effect on A549 cells (Cell Index trace) [2] | effect on NK-92-mediated cytolysis of A549 cells [3] | effect of inhibitor alone on A549 baseline [4]
1 | CC(=O)O[C@H]1C(=O)[C@@]2(C)[C@H]([C@H](OC(=O)c3ccccc3)[C@]3(O)C[C@H](OC(=O)[C@H](O)[C@@H](NC(=O)c4ccccc4)c4ccccc4)C(C)=C1C3(C)C)[C@]1(OC(C)=O)CO[C@@H]1C[C@@H]2O [paclitaxel] | about 15 hours | gradual decrease in cell index after compound addition | initially induces a cytotoxic effect |  | 
2 | COc1cccc(-c2cc(=O)c3ccccc3o2)c1N [PD98059] |  |  |  | dose-dependently inhibited | minimal effect on the baseline
